Source: US11434242B2, “Dopamine-b-hydroxylase inhibitors” (BIAL-PORTELA & Cª, S.A., priority 2017, dated 2022)
Marks after values point to notes of the source that are not given here.

Target: T1, Dopamine beta hydroxylase (Homo sapiens, UniProt P09172)
T1 construct: 125 μl of plasma; tissue Instituto Português do Sangue Transplantação; host or cells: human plasma from healthy donors
T1 sequence (P09172 40-617 limits assumed): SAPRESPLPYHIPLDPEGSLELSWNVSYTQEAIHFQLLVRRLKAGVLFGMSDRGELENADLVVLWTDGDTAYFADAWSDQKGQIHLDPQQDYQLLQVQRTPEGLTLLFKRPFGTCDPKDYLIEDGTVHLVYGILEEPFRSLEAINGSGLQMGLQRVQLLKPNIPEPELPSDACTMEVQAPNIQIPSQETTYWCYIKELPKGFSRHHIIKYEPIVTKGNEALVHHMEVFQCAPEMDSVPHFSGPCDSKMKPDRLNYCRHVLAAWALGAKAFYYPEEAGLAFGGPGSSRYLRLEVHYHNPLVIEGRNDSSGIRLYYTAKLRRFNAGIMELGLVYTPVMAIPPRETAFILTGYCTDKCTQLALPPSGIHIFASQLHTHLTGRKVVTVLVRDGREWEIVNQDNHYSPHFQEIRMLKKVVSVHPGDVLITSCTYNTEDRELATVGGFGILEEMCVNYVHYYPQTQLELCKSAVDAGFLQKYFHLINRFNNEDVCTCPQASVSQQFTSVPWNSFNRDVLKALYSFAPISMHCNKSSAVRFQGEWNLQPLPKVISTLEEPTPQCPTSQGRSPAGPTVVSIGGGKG
Assay: Dopamine beta hydroxylase activity in human plasma
Assay type: biochemical
Details: for Plasma (0.01 μM), activity in % of control / Plasma (0.01 μM), activity in % of control, re-test (asterisked): inhibitor 0.01 μM; for Plasma (0.1 μM), activity in % of control / Plasma (0.1 μM), activity in % of control, re-test (asterisked): inhibitor 0.1 μM; for Plasma (0.01 μM), activity in % of control, re-test (asterisked) / Plasma (0.1 μM), activity in % of control, re-test (asterisked): re-tested under the same experimental conditions, asterisked data believed to be correct
Method in brief: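 Healthy-donor human plasma pre-incubated 10 min at 37° C with compound at final 10, 100 or 1000 nM in pH 5.0 acetate buffer with ascorbate, fumarate, pargyline, N-ethylmaleimide, catalase and copper sulfate. Tyramine substrate then added for 45 min; octopamine formed was isolated by SCX cartridge, periodate-converted and read at 330 nm; activity given as % control.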

## Cn1c(CC(=O)N2CCOCC2)c2n(c1=S)C[C@@H](c1c(F)ccc(F)c1F)C2 [Example 237, (R)-2-(2-methyl-3-thioxo-6-(2,3,6-trifluorophenyl)-2,5,6,7-tetrahydro-3H-pyrrolo[1,2-c]imidazol-1-yl)-1-morpholinoethan-1-one]
  Plasma (0.01 μM), activity in % of control: 92.9 % of control
  Plasma (0.1 μM), activity in % of control: 61.6 % of control

## Cn1c(C2(C(=O)NCCS(C)(=O)=O)CC2)c2n(c1=S)C[C@H](c1c(F)ccc(Br)c1F)C2 [Example 238, (S)-1-(6-(3-bromo-2,6-difluorophenyl)-2-methyl-3-thioxo-2,5,6,7-tetrahydro-3H-pyrrolo[1,2-c]imidazol-1-yl)-N-(2-(methylsulfonyl)ethyl)cyclopropane-1-carboxamide]
  Plasma (0.01 μM), activity in % of control: 93.4 % of control
  Plasma (0.1 μM), activity in % of control: 88.5 % of control

## Cn1c(CC(=O)NC2CCS(=O)(=O)CC2)c2n(c1=S)C[C@@H](c1c(F)ccc(F)c1F)C2 [Example 239, (R)—N-(1,1-dioxidotetrahydro-2H-thiopyran-4-yl)-2-(2-methyl-3-thioxo-6-(2,3,6-trifluorophenyl)-2,5,6,7-tetrahydro-3H-pyrrolo[1,2-c]imidazol-1-yl)acetamide]
  Plasma (0.01 μM), activity in % of control: 60.1 % of control
  Plasma (0.1 μM), activity in % of control: 3.9 % of control

## Cn1c(CC(N)=O)c2n(c1=S)C[C@H](c1c(F)ccc(Br)c1F)C2 [Example 240, (S)-2-(6-(3-bromo-2,6-difluorophenyl)-2-methyl-3-thioxo-2,5,6,7-tetrahydro-3H-pyrrolo[1,2-c]imidazol-1-yl)acetamide]
  Plasma (0.01 μM), activity in % of control: 76.1 % of control
  Plasma (0.1 μM), activity in % of control: 39.2 % of control

## Cn1c(CC(=O)N2CCC[C@H]2CO)c2n(c1=S)C[C@H](c1c(F)ccc(Br)c1F)C2 [Example 241, 2-((S)-6-(3-bromo-2,6-difluorophenyl)-2-methyl-3-thioxo-2,5,6,7-tetrahydro-3H-pyrrolo[1,2-c]imidazol-1-yl)-1-((S)-2-(hydroxymethyl)pyrrolidin-1-yl)ethan-1-one]
  Plasma (0.01 μM), activity in % of control: 51.7 % of control
  Plasma (0.1 μM), activity in % of control: 8.9 % of control

## Cn1c(CC(=O)N2CCOCC2)c2n(c1=S)C[C@@H](c1c(F)c(F)cc(F)c1F)C2 [Example 242, (R)-2-(2-methyl-6-(2,3,5,6-tetrafluorophenyl)-3-thioxo-2,5,6,7-tetrahydro-3H-pyrrolo[1,2-c]imidazol-1-yl)-1-morpholinoethan-1-one]
  Plasma (0.01 μM), activity in % of control: 91.5 % of control
  Plasma (0.1 μM), activity in % of control: 53.6 % of control

## Cn1c(CC(=O)N[C@@H]2CCOC2)c2n(c1=S)C[C@@H](c1c(F)c(F)cc(F)c1F)C2 [Example 243]
  Plasma (0.01 μM), activity in % of control: 38.0 % of control
  Plasma (0.01 μM), activity in % of control, re-test (asterisked): 87.3* % of control
  Plasma (0.1 μM), activity in % of control: 4.4 % of control
  Plasma (0.1 μM), activity in % of control, re-test (asterisked): 37.6* % of control

## Cn1c(CC(=O)N[C@@H]2CCOC2)c2n(c1=S)C[C@@H](c1c(F)ccc(F)c1F)C2 [Example 244, 2-((R)-2-methyl-3-thioxo-6-(2,3,6-trifluorophenyl)-2,5,6,7-tetrahydro-3H-pyrrolo[1,2-c]imidazol-1-yl)-N—((R)-tetrahydrofuran-3-yl)acetamide]
  Plasma (0.01 μM), activity in % of control: 83.6 % of control
  Plasma (0.1 μM), activity in % of control: 32.9 % of control

## Cn1c(CC(=O)NC2CCCC2)c2n(c1=S)C[C@@H](c1cc(Cl)ccc1F)C2 [Example 245, (R)-2-(6-(5-chloro-2-fluorophenyl)-2-methyl-3-thioxo-2,5,6,7-tetrahydro-3H-pyrrolo[1,2-c]imidazol-1-yl)-N-cyclopentylacetamide]
  Plasma (0.01 μM), activity in % of control: 107.8 % of control
  Plasma (0.1 μM), activity in % of control: 93 % of control

## Cn1c(CC(=O)N[C@@H]2CCOC2)c2n(c1=S)C[C@@H](c1cc(Cl)ccc1F)C2 [Example 246, 2-((R)-6-(5-chloro-2-fluorophenyl)-2-methyl-3-thioxo-2,5,6,7-tetrahydro-3H-pyrrolo[1,2-c]imidazol-1-yl)-N—((R)-tetrahydrofuran-3-yl)acetamide]
  Plasma (0.01 μM), activity in % of control: 115.2 % of control
  Plasma (0.1 μM), activity in % of control: 80.3 % of control

## COC[C@@H]1CCCN1C(=O)Cc1c2n(c(=S)n1C)C[C@@H](c1c(F)ccc(F)c1F)C2 [Example 247, 1-((S)-2-(methoxymethyl)pyrrolidin-1-yl)-2-((R)-2-methyl-3-thioxo-6-(2,3,6-trifluorophenyl)-2,5,6,7-tetrahydro-3H-pyrrolo[1,2-c]imidazol-1-yl)ethan-1-one]
  Plasma (0.01 μM), activity in % of control: 81.7 % of control
  Plasma (0.1 μM), activity in % of control: 35.9 % of control

## Cn1c(CC(=O)N2CCC[C@H]2C(F)(F)F)c2n(c1=S)C[C@@H](c1c(F)ccc(F)c1F)C2 [Example 248, 2-((R)-2-methyl-3-thioxo-6-(2,3,6-trifluorophenyl)-2,5,6,7-tetrahydro-3H-pyrrolo[1,2-c]imidazol-1-yl)-1-((S)-2-(trifluoromethyl)pyrrolidin-1-yl)ethan-1-one]
  Plasma (0.01 μM), activity in % of control: 98.2 % of control
  Plasma (0.1 μM), activity in % of control: 51.8 % of control

## Cn1c(CC(N)=O)c2n(c1=S)C[C@H](c1c(F)ccc(Cl)c1F)C2 [Example 249, (S)-2-(6-(3-chloro-2,6-difluorophenyl)-2-methyl-3-thioxo-2,5,6,7-tetrahydro-3H-pyrrolo[1,2-c]imidazol-1-yl)acetamide]
  Plasma (0.01 μM), activity in % of control: 96.0 % of control
  Plasma (0.1 μM), activity in % of control: 40.9 % of control

## Cn1c(CC(=O)N[C@@H]2CCOC2)c2n(c1=S)C[C@H](c1c(F)ccc(Cl)c1F)C2 [Example 250, 2-((S)-6-(3-chloro-2,6-difluorophenyl)-2-methyl-3-thioxo-2,5,6,7-tetrahydro-3H-pyrrolo[1,2-c]imidazol-1-yl)-N—((R)-tetrahydrofuran-3-yl)acetamide]
  Plasma (0.01 μM), activity in % of control: 46.1 % of control
  Plasma (0.1 μM), activity in % of control: 7.3 % of control

## Cn1c(CC(=O)N[C@@H]2CCOC2)c2n(c1=S)C[C@H](c1cc(Cl)ccc1F)C2 [Example 251, 2-((S)-6-(5-chloro-2-fluorophenyl)-2-methyl-3-thioxo-2,5,6,7-tetrahydro-3H-pyrrolo[1,2-c]imidazol-1-yl)-N—((R)-tetrahydrofuran-3-yl)acetamide]
  Plasma (0.01 μM), activity in % of control: 80.0 % of control
  Plasma (0.1 μM), activity in % of control: 36.0 % of control

## CN(C(=O)Cc1c2n(c(=S)n1C)C[C@H](c1c(F)ccc(Br)c1F)C2)C1CCOC1 (stereo partly drawn) [Example 252, 2-((S)-6-(3-bromo-2,6-difluorophenyl)-2-methyl-3-thioxo-2,5,6,7-tetrahydro-3H-pyrrolo[1,2-c]imidazol-1-yl)-N-methyl-N-(tetrahydrofuran-3-yl)acetamide]
  Plasma (0.01 μM), activity in % of control: 82.2 % of control
  Plasma (0.01 μM), activity in % of control, re-test (asterisked): 46.0* % of control
  Plasma (0.1 μM), activity in % of control: 54.8 % of control
  Plasma (0.1 μM), activity in % of control, re-test (asterisked): 6.7* % of control

## Cn1c(CC(=O)NCC#N)c2n(c1=S)C[C@H](c1c(F)ccc(Br)c1F)C2 [Example 253, (S)-2-(6-(3-bromo-2,6-difluorophenyl)-2-methyl-3-thioxo-2,5,6,7-tetrahydro-3H-pyrrolo[1,2-c]imidazol-1-yl)-N-(cyanomethyl)acetamide]
  Plasma (0.01 μM), activity in % of control: 63.4 % of control
  Plasma (0.1 μM), activity in % of control: 24.5 % of control

## Cn1c(CC(=O)NC2(C#N)CC2)c2n(c1=S)C[C@@H](c1c(F)ccc(F)c1F)C2 [Example 254, (R)—N-(1-cyanocyclopropyl)-2-(2-methyl-3-thioxo-6-(2,3,6-trifluorophenyl)-2,5,6,7-tetrahydro-3H-pyrrolo[1,2-c]imidazol-1-yl)acetamide]
  Plasma (0.01 μM), activity in % of control: 81.4 % of control
  Plasma (0.1 μM), activity in % of control: 62.2 % of control

## Cn1c(CC(=O)N[C@@H]2CCCOC2)c2n(c1=S)C[C@@H](c1c(F)ccc(F)c1F)C2 [Example 255, 2-((R)-2-methyl-3-thioxo-6-(2,3,6-trifluorophenyl)-2,5,6,7-tetrahydro-3H-pyrrolo[1,2-c]imidazol-1-yl)-N—((R)-tetrahydro-2H-pyran-3-yl)acetamide]
  Plasma (0.01 μM), activity in % of control: 71.8 % of control
  Plasma (0.1 μM), activity in % of control: 24.6 % of control
